According to ChEMBL document CHEMBL4052640 (Eur J Med Chem, 2017):

Experiments:
[1] = system: Vesicular stomatitis virus; experiment: microbe, parasite or virus in culture; settings: HeLa
[2] = system: Coxsackievirus B4; type: functional, cell-based; settings: Enterovirus B, HeLa
[3] = system: Influenza A virus; type: functional, cell-based; settings: A/Ned/378/05(H1N1), MDCK
[4] = system: Respiratory syncytial virus; type: functional, cell-based; settings: human respiratory syncytial virus, HeLa
[5] = system: Human respirovirus 3; experiment: microbe, parasite or virus in culture; settings: Human respirovirus 3, Vero
[6] = system: Influenza A virus; type: functional, cell-based; settings: A/Ned/378/05(H1N1), MDCK; remark: listed apart in the source
[7] = system: Yellow fever virus; experiment: microbe, parasite or virus in culture; settings: Vero
[8] = cells; settings: MDCK
[9] = system: Influenza B virus; experiment: microbe, parasite or virus in culture; settings: B/Ned/537/05, MDCK
[10] = cells; settings: Influenza A virus, MDCK
[11] = system: Coxsackievirus B4; type: functional; settings: Enterovirus B, Vero
[12] = system: Mammalian orthoreovirus 1; type: functional; settings: Mammalian orthoreovirus 1, Vero
[13] = system: Sindbis virus; type: functional; settings: Vero
[14] = cells; settings: Influenza A virus, MDCK; remark: listed apart in the source
[15] = system: MDCK; experiment: Cytotoxicity against dog MDCK cells assessed as reduction in cell viability measured after 5 to 6 days by MTS assay; type: cell-based, Canis lupus familiaris
[16] = system: Punta Toro virus; type: functional; settings: Vero
[17] = system: Respiratory syncytial virus; experiment: microbe, parasite or virus in culture; settings: human respiratory syncytial virus, HeLa
[18] = Cytotoxicity against human HeLa cells assessed as alterations in cell morphology by microscopic analysis; type: cell-based

SMILES | EC50 [1] [µM] | EC50 [2] [µM] | EC50 [3] [µM] | EC50 [4] [µM] | EC50 [5] [µM] | EC50 [6] [µM] | EC50 [7] [µM] | EC50 [8] [µM] | EC50 [9] [µM] | EC50 [10] [µM] | EC50 [11] [µM] | EC50 [12] [µM] | EC50 [13] [µM] | EC50 [14] [µM] | CC50 [15] [µM] | EC50 [16] [µM] | EC50 [17] [µM] | MCC [18] [µM]
CC1(C)N=C(N)N=C(Nc2ccc(Cl)cc2)N1 | > 100 | > 100 | > 100 | > 100 | > 100 | > 100 | > 100 | > 100 | > 100 | > 83 | > 100 | > 100 | > 100 | > 83 | > 100 | > 100 | – | –
NC1=NC2(CCCC2)N(c2ccc(Cl)cc2)C(N)=N1 | > 100 | > 100 | > 100 | 8 | > 100 | > 100 | > 100 | 6.1 | 18 | > 83 | > 100 | > 100 | > 100 | > 83 | > 100 | > 100 | – | –
NC1=NC2(CCCCC2)N(c2ccc(Cl)cc2)C(N)=N1 | > 100 | > 100 | > 100 | > 100 | > 100 | > 100 | > 100 | 36 | > 83 | 10 | > 100 | > 100 | > 100 | 49 | > 100 | > 100 | – | –
CC1(C)N=C(N)N=C(N)N1c1cccc(C(F)(F)F)c1 | > 100 | > 100 | – | – | > 100 | – | > 100 | – | – | – | > 100 | – | > 100 | – | 6.1 | – | 0.03 | 20
CCCC1N=C(N)N=C(N)N1c1ccc(Cl)cc1 (stereo not drawn) | > 100 | > 100 | > 100 | > 100 | > 100 | > 100 | > 100 | > 100 | 29 | > 83 | > 100 | > 100 | > 100 | > 83 | > 100 | > 100 | – | –
CC1N=C(N)N=C(N)N1c1ccc(Cl)cc1 (stereo not drawn) | > 100 | > 100 | > 100 | 6.8 | > 100 | > 100 | > 100 | 4.9 | 17 | > 83 | > 100 | > 100 | > 100 | > 83 | > 100 | > 100 | – | –
NC1=NC(c2ccccc2)N(c2ccc(Cl)cc2)C(N)=N1 (stereo not drawn) | > 100 | > 100 | > 100 | > 100 | > 100 | > 100 | > 100 | > 100 | > 100 | > 83 | > 100 | > 100 | > 100 | > 83 | > 100 | > 100 | – | –
N=C(N)NC(=N)Nc1ccc(Cl)cc1 [4-CHLOROPHENYLBIGUANIDE] | > 100 | > 100 | > 100 | > 100 | > 100 | > 100 | > 100 | > 100 | > 100 | > 83 | > 100 | > 100 | > 100 | > 83 | > 100 | > 100 | – | –
CC1(C)N=C(N)N=C(N)N1c1ccc(Cl)c(Cl)c1 [CHLORCYCLOGUANIL] | > 100 | > 100 | 0.55 | 0.0075 | > 100 | 0.35 | > 100 | 0.03 | 0.08 | 1.4 | > 100 | 3.8 | > 100 | 0.72 | 6.7 | > 100 | – | –
[H]/N=C(\N/C(=N/[H])Nc1ccc(Cl)cc1)NC(C)C [PROGUANIL] | > 100 | > 100 | > 100 | > 100 | > 100 | > 100 | > 100 | > 100 | > 100 | > 83 | > 100 | > 100 | > 100 | > 83 | > 100 | > 100 | – | –
